# Measured values taken from the Kinase Knowledgebase extract (Sharma et al. 2016).
# pIC50: −log10 of the molar value.
# Key:
# CDK2 (human) [1] = molecular target: CDK2 (human) (UniProt P24941); assay: Enzyme Assay
# CDK2 (human) [2] = molecular target: CDK2 (human) (UniProt P24941); assay: Cell-Based Assay; details: rko
# CDK2 (human) [3] = molecular target: CDK2 (human) (UniProt P24941); assay: Cell-Based Assay
SMILES,pIC50 (CDK2 (human) [1]),also measured
NS(=O)(=O)c1ccc(N/C=C2/C(=O)Nc3ccncc32)cc1.NS(=O)(=O)c1ccc(N/C=C2\C(=O)Nc3ccncc32)cc1,7.26,
NS(=O)(=O)c1ccc(N/C=C2\C(=O)Nc3ncccc32)cc1,6.26,
NS(=O)(=O)c1ccc(NN=C2C(=O)Nc3ccc(-c4cnco4)cc32)cc1,,pIC50 (CDK2 (human) [2]): 6.46; pIC50 (CDK2 (human) [3]; hdf-3): 6.46; pIC50 (CDK2 (human) [3]; mda-mb-468): 6.46; pIC50 (CDK2 (human) [3]; rko): 6.46
CNS(=O)(=O)Cc1ccc(NN=C2C(=O)Nc3cc(C)c(O)c(C)c32)cc1,,pIC50 (CDK2 (human) [3]; mda-mb-468): 6.52
NC(=O)c1ccc(N/C=C2\C(=O)Nc3ccc4ncsc4c32)cc1,7.12,
NS(=O)(=O)c1ccc(N/C=C2\C(=O)Nc3cnccc32)cc1,7.26,
NS(=O)(=O)c1ccc(N/C=C2\C(=O)Nc3ncc(-c4ccsc4)cc32)cc1,6.26,
O=C1Nc2ccc3ccncc3c2/C1=C/Nc1ccc(Cc2ccncc2)cc1,7.52,
O=C1Nc2nc(Cl)ccc2/C1=C/Nc1ccc2cn[nH]c2c1,6.26,
NS(=O)(=O)c1ccc(N/C=C2\C(=O)Nc3ncc(-c4ccco4)cc32)cc1,7.26,
O=C1Nc2ncc(Br)cc2/C1=C/Nc1ccc2cn[nH]c2c1,7.26,
CN(C)S(=O)(=O)c1ccc(N/C=C2\C(=O)Nc3ccc(-c4cnco4)cc32)cc1,,pIC50 (CDK2 (human) [3]; mda-mb-468): < 5.30
CCOC(=O)c1cnc2c(c1)/C(=C/Nc1ccc3ncccc3c1)C(=O)N2,6.26,
O=C1Nc2ncc(-c3ccco3)cc2/C1=C/Nc1ccc2cn[nH]c2c1,5.26,

# More lines, main results first:
pIC50 (CDK2 (human) [1]),SMILES,also measured
6.26,NS(=O)(=O)c1ccc(N/C=C2\C(=O)Nc3nc(Cl)ccc32)cc1,
7.26,CCOC(=O)c1cnc2c(c1)/C(=C/Nc1ccc(S(N)(=O)=O)cc1)C(=O)N2,
7.26,O=C1Nc2ncc(Br)cc2/C1=C/Nc1ccc2ncccc2c1,
7.52,Cc1cc(=O)[nH]n1-c1ccc(N/C=C2\C(=O)Nc3ccc4ncsc4c32)cc1,
5.26,NS(=O)(=O)c1ccc(N/C=C2\C(=O)Nc3ncc(-c4ccccc4)cc32)cc1,
7.26,NS(=O)(=O)c1ccc(N/C=C2\C(=O)Nc3ncc(Br)cc32)cc1,
7.12,O=C1Nc2ccc3ccncc3c2/C1=C/Nc1ccc(CCO)cc1,
6.26,O=C1Nc2ncc(-c3ccsc3)cc2/C1=C/Nc1ccc2cn[nH]c2c1,
7.26,CCOC(=O)c1cnc2c(c1)/C(=C/Nc1ccc3cn[nH]c3c1)C(=O)N2,
< 7.00,O=C1Nc2ccc3ccncc3c2/C1=C/Nc1ccc(N2CCOCC2)cc1,
